Laboratory results: the supplement of paper PMC13207355

Tests used:
Details in all cases: exposure time: 72 h
E28 [1] = patient-derived glioblastoma stem cells of classical subtype; assay: surviving fraction (nuclei count normalised to DMSO); higher = more cells surviving (less toxic)
E21 [2] = patient-derived glioblastoma stem cells of mesenchymal subtype; assay: as above
E57 [3] = patient-derived glioblastoma stem cells of mesenchymal subtype; assay: as above
E13 [4] = patient-derived glioblastoma stem cells of classical subtype; assay: as above
E34 [5] = patient-derived glioblastoma stem cells of proneural subtype; assay: as above
FT3469 [6] = normal neural stem cell line; assay: as above
E31 [7] = patient-derived glioblastoma stem cells of proneural subtype; assay: as above
E28 [8] = assay: phenotypic distance (Euclidean, principal components) from DMSO controls (arbitrary units); higher = stronger morphological change
E21 [9] = assay: as above
E57 [10] = assay: as above
E13 [11] = assay: as above
E34 [12] = assay: as above
FT3469 [13] = assay: as above
E31 [14] = assay: as above
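Throughout, for phenotypic distance (Euclidean, principal components) from DMSO controls: cell Painting imaging in 384-well plates, CellProfiler features reduced to at least 20 principal components, Euclidean distance versus same-plate DMSO vehicle wells (0.1% v/v), median over six images per well.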
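Throughout, for surviving fraction (nuclei count normalised to DMSO): nuclei counted by high-content imaging of Hoechst-stained cells in laminin-coated 384-well plates, relative to 0.1% DMSO vehicle wells, with staurosporine as cell-death control.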

C[C@H]1Oc2cc(cnc2N)-c2c(nn(C)c2C#N)CN(C)C(=O)c2ccc(F)cc21 [Lorlatinib]
Details	phenotypic distance	surviving fraction
E13 [4], 4.1 nM	–	1.03
E13 [4], 12.3 nM	–	0.961
E13 [4], 37 nM	–	1.08
E13 [4], 111.1 nM	–	1.08
E13 [4], 333.3 nM	–	1.11
E13 [4], 1000 nM	–	1
E13 [4], 3000 nM	–	1.01
E13 [11], 4.1 nM	0.964	–
E13 [11], 12.3 nM	0.749	–
E13 [11], 37 nM	1.19	–
E13 [11], 111.1 nM	0.958	–
E13 [11], 333.3 nM	0.954	–
E13 [11], 1000 nM	1.09	–
E13 [11], 3000 nM	0.943	–
E21 [2], 4.1 nM	–	0.887
E21 [2], 12.3 nM	–	0.918
E21 [2], 37 nM	–	0.876
E21 [2], 111.1 nM	–	0.918
E21 [2], 333.3 nM	–	0.862
E21 [2], 1000 nM	–	0.924
E21 [2], 3000 nM	–	0.768
E21 [9], 4.1 nM	0.926	–
E21 [9], 12.3 nM	2.32	–
E21 [9], 37 nM	1.09	–
E21 [9], 111.1 nM	0.89	–
E21 [9], 333.3 nM	1.37	–
E21 [9], 1000 nM	1.41	–
E21 [9], 3000 nM	1.96	–
E28 [1], 4.1 nM	–	1.11
E28 [1], 12.3 nM	–	1.02
E28 [1], 37 nM	–	1.05
E28 [1], 111.1 nM	–	0.843
E28 [1], 333.3 nM	–	0.913
E28 [1], 1000 nM	–	1.07
E28 [1], 3000 nM	–	0.911
E28 [8], 4.1 nM	1.06	–
E28 [8], 12.3 nM	0.784	–
E28 [8], 37 nM	1.27	–
E28 [8], 111.1 nM	1.47	–
E28 [8], 333.3 nM	1.29	–
E28 [8], 1000 nM	1.31	–
E28 [8], 3000 nM	1.79	–
E31 [7], 4.1 nM	–	1.23
E31 [7], 12.3 nM	–	0.867
E31 [7], 37 nM	–	1.06
E31 [7], 111.1 nM	–	0.986
E31 [7], 333.3 nM	–	1.17
E31 [7], 1000 nM	–	1.08
E31 [7], 3000 nM	–	1.01
E31 [14], 4.1 nM	0.873	–
E31 [14], 12.3 nM	1.38	–
E31 [14], 37 nM	2.47	–
E31 [14], 111.1 nM	0.874	–
E31 [14], 333.3 nM	1.08	–
E31 [14], 1000 nM	1.32	–
E31 [14], 3000 nM	1.4	–
E34 [5], 4.1 nM	–	1.02
E34 [5], 12.3 nM	–	0.994
E34 [5], 37 nM	–	0.939
E34 [5], 111.1 nM	–	1.09
E34 [5], 333.3 nM	–	0.999
E34 [5], 1000 nM	–	1.1
E34 [5], 3000 nM	–	0.792
E34 [12], 4.1 nM	0.575	–
E34 [12], 12.3 nM	0.814	–
E34 [12], 37 nM	1.28	–
E34 [12], 111.1 nM	0.761	–
E34 [12], 333.3 nM	1.2	–
E34 [12], 1000 nM	0.726	–
E34 [12], 3000 nM	1.84	–
E57 [3], 4.1 nM	–	0.87
E57 [3], 12.3 nM	–	0.808
E57 [3], 37 nM	–	0.891
E57 [3], 111.1 nM	–	0.816
E57 [3], 333.3 nM	–	0.815
E57 [3], 1000 nM	–	0.794
E57 [3], 3000 nM	–	0.757
E57 [10], 4.1 nM	2.11	–
E57 [10], 12.3 nM	3.34	–
E57 [10], 37 nM	2.79	–
E57 [10], 111.1 nM	3.21	–
E57 [10], 333.3 nM	2.46	–
E57 [10], 1000 nM	2.74	–
E57 [10], 3000 nM	2.66	–
FT3469 [6], 4.1 nM	–	0.89
FT3469 [6], 12.3 nM	–	1.1
FT3469 [6], 37 nM	–	0.999
FT3469 [6], 111.1 nM	–	0.981
FT3469 [6], 333.3 nM	–	1.03
FT3469 [6], 1000 nM	–	1.06
FT3469 [6], 3000 nM	–	0.834
FT3469 [13], 4.1 nM	1.48	–
FT3469 [13], 12.3 nM	0.861	–
FT3469 [13], 37 nM	1.31	–
FT3469 [13], 111.1 nM	0.981	–
FT3469 [13], 333.3 nM	1.15	–
FT3469 [13], 1000 nM	0.901	–
FT3469 [13], 3000 nM	1.54	–
